CC(=O)N[C@@H](CCC(N)=O)C(=O)O
solubility (mole fraction)
Details	283.15 K	288.15 K	293.15 K	298.15 K	303.15 K	308.15 K	313.15 K	318.15 K	323.15 K
in 2-butanone	0.000381	0.000395	0.000425	0.000451	0.000479	0.000516	0.000564	0.000606	0.000658
in acetone	0.00016	0.000192	0.000232	0.000275	0.000312	0.000342	0.000389	0.000422	0.000475
in acetonitrile	0.000116	0.000128	0.000139	0.000152	0.000165	0.000179	0.000194	0.000205	0.000217
in ethanol	0.000347	0.000389	0.000461	0.000543	0.000618	0.000685	0.000768	0.000845	0.000935
in ethyl acetate	0.000101	0.000136	0.000186	0.000222	0.000271	0.000323	0.000362	0.000402	0.000431
in isobutanol	0.000288	0.000309	0.000354	0.000415	0.000464	0.000527	0.000587	0.000635	0.000707

— BigSolDB 2.1
